# Test results as given in patent US20180267025A1, “CANCER ANALYSIS SYSTEM” (Xcell Biosciences, Inc., priority 2013, published 2018).
# System: single cells
# Test: chemosensitivity assay on single cells (live-cell imaging, FIG. 10)
# Format: cell-based
# Conditions: single cell imaged before, upon addition, and 2 minutes and 5 minutes after Y-27632 treatment
# From the text: FIG. 10 depicts a chemosensitivity assay conducted on single cells. Target cell subpopulations can be used for personalized medicine. In the instance of CTCs and CSCs, cells can be used for chemosensitivity testing on whereby standard and exploratory chemotherapy regimens can be tested on cultured CTCs and determination of the effects of chemotherapy drugs on CTCs, including cell viability and cell division rates measurement to determine the efficacy of a given drug. An example of how a chemosensitivity assay can be applied is depicted in FIG. 10. […] In this example, Rho Kinase inhibitor, Y-27632 was used (Ishizaki et al. 2000 Pharmacological Properties of Y-27632, a specific inhibitor of rho-associated kinases. Mol Pharmacol. 57(5):976-83). […] The plasma membrane of the cell retracts upon drug treatment after 2 minutes 1015 and 5 minutes 1020.
smiles,measurement,value
C[C@@H](N)[C@H]1CC[C@H](C(=O)Nc2ccncc2)CC1 [Y-27632],effect on cell adhesions and plasma membrane of a single cell upon drug treatment,loss of adhesions and retraction of the plasma membrane
